Results reported in patent publication US9580390B2, “Indazole compounds as kinase inhibitors and method of treating cancer with same” (University Health Network, priority 2011, dated 2017).
Read-outs that look alike come from different tables or passages of the source.

Legend:
[1] = test system: ovarian cancer cells (PA-1); assay: Cancer cell line growth inhibition (SRB assay); type: cell-based; details: read-out: Cancer Cell Line GI50 Range PA-1
human TTK = biological target: T1, human TTK (Homo sapiens, UniProt P33981); assay: TTK inhibition assay (indirect ELISA); type: biochemical; details: read-out: TTK IC50 Range
T1 construct: amino terminal GST fusion of full length human TTK; purchased Invitrogen
T1 sequence (P33981 1-857): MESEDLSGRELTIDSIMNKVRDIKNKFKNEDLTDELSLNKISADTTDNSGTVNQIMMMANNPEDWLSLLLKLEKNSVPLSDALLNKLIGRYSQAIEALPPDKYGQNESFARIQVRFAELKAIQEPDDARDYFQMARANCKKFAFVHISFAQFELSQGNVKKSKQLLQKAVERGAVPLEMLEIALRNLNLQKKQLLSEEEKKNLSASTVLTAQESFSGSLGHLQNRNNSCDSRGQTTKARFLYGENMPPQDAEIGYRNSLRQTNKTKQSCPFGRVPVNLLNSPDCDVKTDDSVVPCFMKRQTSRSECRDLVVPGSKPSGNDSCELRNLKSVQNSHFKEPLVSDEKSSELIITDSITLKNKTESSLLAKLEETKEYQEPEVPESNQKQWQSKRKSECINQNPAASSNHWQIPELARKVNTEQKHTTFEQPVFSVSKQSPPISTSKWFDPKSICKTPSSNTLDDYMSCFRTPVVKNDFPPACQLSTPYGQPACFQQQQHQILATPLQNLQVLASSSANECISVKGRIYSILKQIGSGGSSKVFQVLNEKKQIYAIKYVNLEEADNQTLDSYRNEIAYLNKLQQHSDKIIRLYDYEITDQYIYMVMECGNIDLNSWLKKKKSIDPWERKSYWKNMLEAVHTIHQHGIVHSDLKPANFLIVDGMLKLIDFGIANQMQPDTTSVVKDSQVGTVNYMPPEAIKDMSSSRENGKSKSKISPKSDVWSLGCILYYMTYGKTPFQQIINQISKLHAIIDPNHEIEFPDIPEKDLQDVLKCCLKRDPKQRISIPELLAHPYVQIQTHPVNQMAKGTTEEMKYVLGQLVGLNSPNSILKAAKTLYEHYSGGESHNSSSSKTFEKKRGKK

[2] = test system: colon cancer cells (HCT116); assay: Cancer cell line growth inhibition (SRB assay); type: cell-based; details: Homo sapiens, HCT-116, read-out: Cancer Cell Line GI50 Range HCT116
[3] = PA-1 ovarian cancer cells, SRB assay
[4] = HCT116 colon cancer cells, SRB assay

GI50 [1, 3] [nM] | IC50 (human TTK) [nM] | GI50 [2, 4] [nM] | GI50 ([1]; Homo sapiens, PA-1) [nM] | GI50 [2] [nM] | Compound
> 500 | < 100 | > 500 | – | – | CN1CCC(Oc2ccc(-c3n[nH]c4ccc(C(=O)NCC5(c6ccncc6)CCOCC5)cc34)cc2)CC1 [Example A478, 3-(4-((1-methylpiperidin-4-yl)oxy)phenyl)-N-((4-(pyridin-4-yl)tetrahydro-2H-pyran-4-yl)methyl)-1H-indazole-5-carboxamide]
– | < 100 | – | 100 to 500 | 100 to 500 | C[C@H](O)C(=O)N1CCC(Oc2ccc(-c3n[nH]c4ccc(C(=O)N[C@H](c5ccccc5)C5CC5)cc34)cc2)CC1 [Example A377, N-((S)-cyclopropyl(phenyl)methyl)-3-(4-((1-((S)-2-hydroxypropanoyl)piperidin-4-yl)oxy)phenyl)-1H-indazole-5-carboxamide]
– | < 100 | – | < 100 | < 100 | O=CN1CCC(Oc2ccc(-c3n[nH]c4ccc(C(=O)NC(c5ccsc5)C5CCC5)cc34)cc2)CC1 (stereo not drawn) [Example A330, N-(cyclobutyl(thiophen-3-yl)methyl)-3-(4-((1-formylpiperidin-4-yl)oxy)phenyl)-1H-indazole-5-carboxamide]
100 to 500 | < 100 | 100 to 500 | – | – | O=C(NCC1(N2CCOCC2)CCCCC1)c1ccc2[nH]nc(-c3ccc(O[C@@H]4CCC[C@H](O)C4)cc3)c2c1 (relative stereo) [Example A497, cis-3-(4-(((1R,3S)-3-hydroxycyclohexyl)oxy)phenyl)-N-((1-morpholinocyclohexyl)methyl)-1H-indazole-5-carboxamide]
100 to 500 | < 100 | < 100 | – | – | CN1CCC(Oc2ccc(-c3n[nH]c4ccc(C(=O)NCC5(N6CCOCC6)CCCCCC5)cc34)cc2)CC1 [Example A429, 3-(4-((1-methylpiperidin-4-yl)oxy)phenyl)-N-((1-morpholinocycloheptyl)methyl)-1H-indazole-5-carboxamide]
– | < 100 | – | < 100 | < 100 | CC(C)C(NC(=O)c1ccc2[nH]nc(-c3ccc(OC4CCN(C5COC5)CC4)cc3)c2c1)c1ccccn1 (stereo not drawn) [Example A327, N-(2-methyl-1-(pyridin-2-yl)propyl)-3-(4-((1-(oxetan-3-yl)piperidin-4-yl)oxy)phenyl)-1H-indazole-5-carboxamide]
> 500 | < 100 | > 500 | – | – | O=C(NC(c1ccccc1)C1CC1)c1ccc2[nH]nc(-c3ccc(OCCn4ccnc4)cc3)c2c1 (stereo not drawn) [Example A165, 3-(4-(2-(1H-imidazol-1-yl)ethoxy)phenyl)-N-(cyclopropyl(phenyl)methyl)-1H-indazole-5-carboxamide]
– | < 100 | – | < 100 | < 100 | O=C(NCC1(N2CCOCC2)CCCCC1)c1ccc2[nH]nc(-c3ccc(OC4CCN(CCO)CC4)cc3)c2c1 [Example A432, 3-(4-((1-(2-hydroxyethyl)piperidin-4-yl)oxy)phenyl)-N-((1-morpholinocyclohexyl)methyl)-1H-indazole-5-carboxamide]
100 to 500 | < 100 | 100 to 500 | – | – | CN1CCC(Oc2ccc(-c3n[nH]c4ccc(C(=O)NCC5(c6ccccc6)CC5(C)C)cc34)cc2)CC1 (stereo not drawn) [Example A431, N-((2,2-dimethyl-1-phenylcyclopropyl)methyl)-3-(4-((1-methylpiperidin-4-yl)oxy)phenyl)-1H-indazole-5-carboxamide]
– | < 100 | – | < 100 | < 100 | CC(C)[C@H](NC(=O)c1ccc2[nH]nc(-c3ccc(OC4CCN(CCO)CC4)cc3)c2c1)c1ccccc1Cl [Example A232, (S)-N-(1-(2-chlorophenyl)-2-methylpropyl)-3-(4-((1-(2-hydroxyethyl)piperidin-4-yl)oxy)phenyl)-1H-indazole-5-carboxamide]
100 to 500 | < 100 | 100 to 500 | – | – | O=C(NCC1(N2CCOCC2)CCCC1)c1ccc2[nH]nc(-c3ccc(O[C@@H]4CCC[C@H](O)C4)cc3)c2c1 (relative stereo) [Example A496, rel-3-(4-(((1R,3S)-3-hydroxycyclohexyl)oxy)phenyl)-N-((1-morpholinocyclopentyl)methyl)-1H-indazole-5-carboxamide]
– | < 100 | – | < 100 | < 100 | CC(C)(O)CN1CCC(Oc2ccc(-c3n[nH]c4ccc(C(=O)N[C@H](c5ccccn5)C5CCCC5)cc34)cc2)CC1 [Example A231, (S)-N-(cyclopentyl(pyridin-2-yl)methyl)-3-(4-((1-(2-hydroxy-2-methylpropyl)piperidin-4-yl)oxy)phenyl)-1H-indazole-5-carboxamide]
– | < 100 | – | < 100 | < 100 | C[C@@H](O)CN1CCC(Oc2ccc(-c3n[nH]c4ccc(C(=O)N[C@H](c5ccccn5)C5CCCC5)cc34)cc2)CC1 [Example A230, N-((S)-cyclopentyl(pyridin-2-yl)methyl)-3-(4-((1-((R)-2-hydroxypropyl)piperidin-4-yl)oxy)phenyl)-1H-indazole-5-carboxamide]
– | < 100 | – | 100 to 500 | 100 to 500 | CCC(CC)(CNC(=O)c1ccc2[nH]nc(-c3ccc(N4CCOCC4)cc3)c2c1)c1ccccc1 [Example A437, N-(2-ethyl-2-phenylbutyl)-3-(4-morpholinophenyl)-1H-indazole-5-carboxamide]
100 to 500 | < 100 | 100 to 500 | – | – | CN1CCC(Oc2ccc(-c3n[nH]c4ccc(C(=O)NCC5(c6ccsc6)CCCCC5)cc34)cc2)CC1 [Example A472, 3-(4-((1-methylpiperidin-4-yl)oxy)phenyl)-N-((1-(thiophen-3-yl)cyclohexyl)methyl)-1H-indazole-5-carboxamide]
100 to 500 | < 100 | 100 to 500 | – | – | CN1CCC(Oc2ccc(-c3n[nH]c4ccc(C(=O)NCC5(c6ccccc6F)CCOCC5)cc34)cc2)CC1 [Example A476, N-((4-(2-fluorophenyl)tetrahydro-2H-pyran-4-yl)methyl)-3-(4-((1-methylpiperidin-4-yl)oxy)phenyl)-1H-indazole-5-carboxamide]
> 500 | 100 to 500 | > 500 | – | – | CC(C)(C)OC(=O)N1CCC(Oc2ccc(-c3n[nH]c4ccc(NC(=O)C(c5ccsc5)N5CCCC5)cc34)cc2)CC1 (stereo not drawn) [Example A115, tert-butyl 4-(4-(5-(2-(pyrrolidin-1-yl)-2-(thiophen-3-yl)acetamido)-1H-indazol-3-yl)phenoxy)piperidine-1-carboxylate]
< 100 | < 100 | < 100 | – | – | O=C(NC(c1ccccc1)C1CC1)c1ccc2[nH]nc(-c3ccc(N[C@H]4CC[C@H](O)CC4)cc3)c2c1 (stereo partly drawn) [Example A106, trans-N-(cyclopropyl(phenyl)methyl)-3-(4-(((1r,4r)-4-hydroxycyclohexyl)amino)phenyl)-1H-indazole-5-carboxamide]
100 to 500 | < 100 | 100 to 500 | – | – | CN1CCC(Oc2ccc(-c3n[nH]c4ccc(C(=O)NCC5(c6ccccn6)CCCCC5)cc34)cc2)CC1 [Example A474, 3-(4-((1-methylpiperidin-4-yl)oxy)phenyl)-N-((1-(pyridin-2-yl)cyclohexyl)methyl)-1H-indazole-5-carboxamide]
– | < 100 | – | 100 to 500 | < 100 | O=C(N[C@H](c1ccccc1)C1CC1)c1ccc2[nH]nc(-c3ccc(N4CCN(C5COC5)CC4)cc3)c2c1 [Example A399, (S)-N-(cyclopropyl(phenyl)methyl)-3-(4-(4-(oxetan-3-yl)piperazin-1-yl)phenyl)-1H-indazole-5-carboxamide]
– | < 100 | – | < 100 | 100 to 500 | O=C(NC(c1ccccn1)C1CCCC1)c1ccc2[nH]nc(-c3ccc(OC4CCN(C5COC5)CC4)cc3)c2c1 (stereo not drawn) [Example A319, N-(cyclopentyl(pyridin-2-yl)methyl)-3-(4-((1-(oxetan-3-yl)piperidin-4-yl)oxy)phenyl)-1H-indazole-5-carboxamide]

Compound | GI50 [1, 3] [nM] | IC50 (human TTK) [nM] | GI50 [2, 4] [nM] | GI50 ([1]; Homo sapiens, PA-1) [nM] | GI50 [2] [nM]
CC(C)C(NC(=O)c1ccc2[nH]nc(-c3ccc(OC4CC5COCC(C4)N5C)cc3)c2c1)c1ccccc1Cl [Example A393, N-(1-(2-chlorophenyl)-2-mcthylpropyl)-3-(4-(((1R,5S,7s)-9-methy]-3-oxa-9-azabicyclo[3.3.1]nonan-7-yl)oxy)phenyl)-1H-indazole-5-carboxamide] | – | < 100 | – | < 100 | < 100
